Consider 12 molecules from PubChem BioAssay AID1918935 (Molecular Pharmacology Branch, DTP, NCI, 2023).

Several values for one entry are separate records, joined by “and”; a condition that tells them apart may be missing. Equal values may be shown once. Some results are limits rather than exact numbers.

The experiment concerns 324938-238-R-J1-PDC complex spheroid viability. Put plainly: Anticancer human tumor 324938-238-R-J1-PDC patient-derived bladder carcinoma cell line growth inhibition. To be noted: for viability, T/C: stronger effect = lower value. From the text: Multicellular complex tumor spheroid response to LSD1 Inhibitor Iadademstat in combination with a variety of drugs and investigational agents in selected tumor cell lines
The current study was undertaken to assess response to LSD1 inhibitors in combination with standard-of-care drugs and investigational agents in solid tumor complex spheroid models as well as in the K-562 leukemia. Complex spheroids include a stromal component modeled by human endothelial cells (HUVEC) and fibroblasts modeled by human mesenchymal stem cells (MSCs). The concentration ranges selected for each drug and investigational agent were based upon clinically achievable concentrations if the clinical Cmax of the agent was known.
Compounds. The drugs and investigational agents used in this study are listed on Table 1. All of the agents used, including staurosporine (NSC755774) and gemcitabine (NSC613327), were obtained from the Developmental Therapeutics Program, NCI. FDA-approved anticancer drugs are available from the NCI at http://dtp.nci.nih.gov/branches/dscb/oncology_drugset_explanation.html. Drugs and investigational agents were >95% pure by proton nuclear magnetic resonance (NMR) and liquid chromatography/mass spectrometry (LC/MS). Stock solutions were prepared at 400x in DMSO, stored at -70 degrees C, and diluted in fresh medium prior to their use. The final concentration of DMSO in cell culture wells never exceeded 0.25% (v/v). The FDA-approved anticancer drug set is available from the Developmental Therapeutics Program at https://dtp.cancer.gov/organization/dscb/obtaining/available_plates.htm. All drugs and investigational agents were tested over a range starting from a high concentration at or near the clinical Cmax and decreasing in half-log increments. If the clinical Cmax for an agent had not been determined, the highest concentration tested was 10 microM.
Cell Lines. The patient-derived cancer cell (PDC) lines: 292921-168-R-J2-PDC, K24384-001-R-PDC, and 521955-158-R2-J5-PDC pancreatic carcinomas, 556581-035-R-J1 ovarian carcinoma, 324938-238-R-J1-PDC, 855422-203-R-J1-PDC and 883617-216-R-J1-PDC urothelial bladder carcinomas, 743489-274-T-PDC renal cell carcinoma, 138582-R-J1 Merkel cell tumor, K60290-347-R-J1 and K57222-313-R-J1-PDC glioblastomas, 653999-131-R-J2-PDC, LG0703-F948-PDC, and 349418-098-R-PDC non-small cell lung carcinomas, 885512-296-R-J2-PDC, 171881-019-R-J1-PDC breast carcinomas and 186277-243-T-J2-PDC and 233499-124-R-J2-PDC colon carcinomas were obtained from the NCI Patient-Derived Models Repository (PDMR, https://pdmr.cancer.gov). The established cell lines NCI/ADR-RES (RRID:CVCL_14520 and OVCAR-5 (RRID:CVCL_1628) ovarian carcinomas, 786-O (RRID:CVCL_1051) and A498 (RRID:CVCL_A498) renal cell carcinoma, NCI-H211 (ATCC, cat. CRL-5824; RRID:CVCL_1529), NCI-H196 (ATCC, cat. CRL-5823, RRID:CVCL_1509), SW 1271 (ATCC, cat. CRL-2177, RRID:CVCL_1716) and NCI-H1876 (ATCC, cat. CRL-5902, RRID:CVCL_1503) small cell lung carcinomas, MDA-MB-231 (RRID:CVCL_0062) and MDA-MB-468 (RRID:CVCL_0419)breast carcinomas (10-12). Pooled donor human umbilical vein endothelial cells (HUVEC, Lonza, cat. CC-2519) and human mesenchymal stem cells (hMSC, Lonza, cat. PT-2501) were purchased from Lonza (Walkersville, MD).
Cell Culture. All cells were maintained in an incubator at 37 degrees C and 5% CO2 with 95% humidity. The PDC lines were cultured according to standard operating procedures established by the NCI PDMR (https://pdmr.cancer.gov). Briefly all PDCs were thawed and cultured in Matrigel-coated flasks prepared with a working solution of 1X Ham's F-12 nutrient mix, without supplementation (Invitrogen, Waltham, MA, cat. 11765054), 100 U/mL penicillin-streptomycin (Invitrogen, cat. 15140122), and 2.5% Matrigel (Corning Inc., Corning, NY, cat. 354248) for the first three passages. […]
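Note: spheroids also contain HUVEC and human MSCs and agents combined with iadademstat; spheroids exposed to agents for 7 days before readout.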

On to `CC(C)c1c(-c2ccccc2)nc2c(C#N)c[nH]n2c1=O`, for which the viability, T/C is 98.8% and 110% (compound 0.0316 µM); 108% and 110% (compound 0.1 µM); 96.5% and 120% (compound 0.316 µM); 92.4% and 107% (compound 1 µM); 89.5% and 95.7% (compound 3.16 µM); 81.7% and 80.9% (compound 10 µM). The IC50 (curve of compound) was > 10000 nM.
As for `CC1(C)CCC(CN2CCN(c3ccc(C(=O)NS(=O)(=O)c4ccc(NCC5CCOCC5)c([N+](=O)[O-])c4)c(Oc4cnc5[nH]ccc5c4)c3)CC2)=C(c2ccc(Cl)cc2)C1`, the viability, T/C by setting is: (compound 0.0316 µM) 99% and 104%; (compound 0.1 µM) 102% and 108%; (compound 0.316 µM) 107% and 109%; (compound 1 µM) 103% and 90.5%; (compound 3.16 µM) 90.8% and 83%; (compound 10 µM) 28.4% and 20.4%. Under “curve of compound”, the concentration for half-maximal inhibition (IC50) was 6730 nM and 5650 nM.
On to `CC1COCCN1c1cc(C2(S(C)(=N)=O)CC2)nc(-c2ccnc3[nH]ccc23)n1` (centres undefined), for which the viability, T/C (compound 0.0316 µM) is 104% and 97.9%; the viability, T/C (compound 0.1 µM) is 101% and 108%; the viability, T/C (compound 0.316 µM) was 98.3% and 78.8%; the viability, T/C (compound 1 µM) was 71.4% and 44.7%; the viability, T/C (compound 3.16 µM) was 27.9% and 21.4%; the viability, T/C (compound 10 µM) is 14.6% and 8.79%. The IC50 (curve of compound) is 1760 nM and 853 nM.
With `CCN(c1cc(-c2ccc(CN3CCOCC3)cc2)cc(C(=O)NCc2c(C)cc(C)[nH]c2=O)c1C)C1CCOCC1`, the viability, T/C is, setting by setting: (compound 0.00949 µM) 100% and 111%; (compound 0.03 µM) 105%; (compound 0.0949 µM) 96.9% and 101%; (compound 0.3 µM) 96.7% and 97.5%; (compound 0.949 µM) 94.5% and 98.9%; (compound 3 µM) 91.2% and 99%. Also, under “curve of compound”, the IC50 is > 3000 nM.
`COc1cc(C2c3cc4c(cc3C(OC3OC5COC(C)OC5C(O)C3O)C3COC(=O)C23)OCO4)cc(OC)c1O` (centres undefined): the viability, T/C is, setting by setting: (compound 0.00949 µM) 97.2% and 106%; (compound 0.03 µM) 84.8% and 76%; (compound 0.0949 µM) 34.7% and 35.1%; (compound 0.3 µM) 20.9% and 20.7%; (compound 0.949 µM) 19.2% and 17.7%; (compound 3 µM) 8.35% and 8.98%. The IC50 (curve of compound) is 67.5 nM and 63.9 nM.
`COc1ccc([C@@H](O)c2cc(-c3ncnc4cc(N5CCOCC5)ccc34)c(F)cc2Cl)nn1`: the viability, T/C (compound 0.0316 µM) was 102%; the viability, T/C (compound 0.1 µM) is 95.8% and 99.8%; the viability, T/C (compound 0.316 µM) was 86.6% and 81.7%; the viability, T/C (compound 1 µM) is 69.1% and 64.7%; the viability, T/C (compound 3.16 µM) was 50.8% and 45.9%; the viability, T/C (compound 10 µM) is 32.3% and 27.2%. Also, the IC50 (curve of compound) is 3240 nM and 2340 nM.
Turning to `NC1CC1c1ccc(-c2cccc(O)c2)cc1` (centres undefined), the viability, T/C is, setting by setting: (compound 0.1 µM) 86.9% and 102% and 91.3%; (compound 3.16 µM) 73.9% [middle of 23 runs]. Moreover, for the setting “compound alone, run of 12/07/2021”, the IC50 is > 10000 nM.
Take `NC1CCC(NC2CC2c2ccccc2)CC1` (centres undefined): the viability, T/C (compound 0.1 µM) was 78.6% [middle of 25 runs]; the viability, T/C (compound 0.316 µM) is 86.7% and 75.8% and 76.6%; the viability, T/C (compound 1 µM) is 75.9% [middle of 25 runs]; the viability, T/C (compound 3.16 µM) was 73.6% [middle of 24 runs]; the viability, T/C (compound 10 µM) is 72.2% [middle of 23 runs]. Moreover, the IC50 (compound alone, run of 11/29/2021) is > 10000 nM.
`NS(=O)(=O)OCC1CC(n2ccc3c(NC4CCc5ccccc54)ncnc32)CC1O` (centres undefined): the viability, T/C by setting is: (compound 0.00949 µM) 103% and 106%; (compound 0.03 µM) 106% and 112%; (compound 0.0949 µM) 93.4% and 94%; (compound 0.3 µM) 54.2% and 43.8%; (compound 0.949 µM) 12.5% and 10.2%; (compound 3 µM) 15.6% and 11.9%. In addition, the IC50 (curve of compound) was 326 nM and 256 nM.
`Nc1ccccc1NC(=O)c1ccc(CNC(=O)OCc2cccnc2)cc1`: the viability, T/C reads like this: (compound 0.00949 µM) 112% and 111%; (compound 0.03 µM) 107% and 111%; (compound 0.0949 µM) 96.8% and 88.3%; (compound 0.3 µM) 63.3% and 59.8%; (compound 0.949 µM) 37.7% and 37.5%; (compound 3 µM) 9.59% and 7.01%. Further, where the note is “curve of compound”, the IC50 is 555 nM and 507 nM.
Regarding `O=C(C=Cc1cccc(S(=O)(=O)Nc2ccccc2)c1)NO`, the viability, T/C by setting is: (compound 0.00949 µM) 95.5% and 107%; (compound 0.03 µM) 89.1% and 92.1%; (compound 0.0949 µM) 71% and 70%; (compound 0.3 µM) 46.1% and 42.8%; (compound 0.949 µM) 26.1% and 24.2%; (compound 3 µM) 4.98% and 3.24%. Also, under “curve of compound”, the IC50 is 273 nM and 237 nM.
With `O=C(c1cc(Cc2n[nH]c(=O)c3ccccc23)ccc1F)N1CCN(C(=O)C2CC2)CC1`, the viability, T/C is, setting by setting: (compound 0.0316 µM) 100% and 104%; (compound 0.1 µM) 100% and 104%; (compound 0.316 µM) 107% and 96.3%; (compound 1 µM) 87.4% and 80.7%; (compound 3.16 µM) 64.5% and 48.9%; (compound 10 µM) 40.4% and 31.9%. Besides, the IC50 (curve of compound) was 6260 nM and 3090 nM.
